The values that follow come from patent US20160367831A1, “IMPLANTABLE MEDICAL DEVICE, SYSTEM AND METHOD FOR INDUCING THROMBOSIS IN AN ARTERY OF A LIVING ANIMAL” (Chang Gung Memorial Hospital, Linkou, priority 2015, published 2016).

SMILES strings stand for the structures.

Type in all cases: in vivo, spontaneously hypertensive rat (SHR)
The subject of assay [1] is common carotid artery (CCA). Put plainly: LED photochemical thrombosis induction in the common carotid artery, ultrasound imaging. Particulars: for thrombosis formation in the CCA (ultrasound): no irradiation. An excerpt: A system for inducing thrombosis was provided, including an implantable medical device and an external power controller. The external power controller includes a Class-E amplifier and a resonant transmitting coil. The implantable medical device includes a resonant receiving coil (i.e., the wireless power receiver) and an LED assembly (i.e., the irradiation module) including a surface-mount device type LED (i.e., the light-emitting element) and a LED lens (i.e., the lens element) disposed on the LED. The LED assembly and the resonant receiving coil were hermetically packaged with polydimethylsiloxane (PDMS) (i.e., the encapsulator). An open ditch of approximately 2 mm in width and depth was made on the LED lens, and four cuts (i.e., the engaging groove) were formed on the PDMS. A male spontaneously hypertensive rat (SHR) (i.e., the living animal) was anesthetized with 3% isoflurane in a mixture of 30% oxygen and 70% nitrogen. After the administration of anesthesia, the rat was placed in a supine position. A 1 cm incision was made in the left inguinal area and the femoral vein was carefully dissected. A polyethylene tube to be used for rose bengal injection was inserted in the femoral vein via the dissected incision and secured using 3-0 nylon suture. […] Blunt dissection of the left common carotid artery (CCA) was performed. The CCA was placed into the ditch of the LED lens, and the implantable medical device was secured onto the CCA using 3-0 nylon suture (i.e., the securing strap) to engage the cuts on the PDMS. After the implantation procedure, the surgical wound was sutured and the rat was placed in a prone position near the transmitting coil of the external power controller. After isoflurane was decreased to 1%, rose bengal (Sigma-Aldrich, St. Louis, Mo., USA) was administrated intravenously at a dose of 60 mg/kg. Thereafter, the external power controller was powered to wirelessly drive the LED of the implantable medical device via the resonant receiving coil to irradiate the CCA at a wavelength of 540 nm. […] The LED light power was measured using a Nova handheld laser power meter (Ophir Optronics Solutions, Ltd., Israel). After irradiation, the implantable medical device was removed and the wound was sutured using 3-0 nylon. Ultrasound images of the CCA prior to irradiation (Pre OP), immediately after irradiation (Post OP), 3 days after irradiation (Post OP 3d), and 7 days after irradiation (Post OP 7d) were captured and are shown in FIG. 6.

Assay [2] has as its system common carotid artery (CCA). The assay is described as follows: Histological (H&E) and immunohistochemical (PECAM-1) staining of the CCAs. Particulars: for thrombus formation, histologic examination (H&E): 3 days. The procedure:
The animal of Example 3 and Comparative Example 2 was anesthetized and sacrificed. Both CCAs of Example 3 and Comparative Example 2 were removed and washed in phosphate buffer solution, dehydrated on dry ice, and stored at −80° C. for 24 hours. Before sectioning, all CCAs were embedded in Optimal Cutting Temperature Compound (Tissue Tek, 4583) (Sakura Finetek USA, Inc., Torrance, Calif., USA) and stored at −80° C. for another 12 hours. Cross-sections of the CCAs of Example 3 and Comparative Example 2 (10 μm in thickness) were consecutively cut on a microtome-cryostat. Then, these sections were subjected to hematoxylin and eosin (H&E) staining for evaluation of thrombus formation. For immunohistochemical staining, the slides were treated with cold acetone for 10 minutes and then with methanol with 0.3% H2O2 for 10 minutes. After blocking endogenous peroxidase using a peroxidase blocking reagent (DAKO, Carpinteria, Calif., USA), the primary antibody (anti-PECAM-1 [anti-CD31]) (AbD Serotec, Dusseldorf, Germany) was applied at a dilution of 1:500 overnight at 4° C., followed by a universal immuno-peroxidase polymer (Histofine) (Cosmo Bio, Carlsbad, Calif., USA) for 1 hour at room temperature. Development of color was achieved by exposure for 2 minutes to the DAB chromogen system (DAKO). Endothelium cells were considered positive for PECAM-1 in the presence of intense brown staining.

Assay [3] concerns common carotid artery (CCA). Put plainly: Magnetic Resonance Angiography (MRA) examination of the CCAs. Particulars: Example 3: intermittent 4.5 mW/cm2 LED. On the procedure:
Serial in vivo MRA examination was performed on the CCAs of Example 3 and Comparative Example 2, and the typical MR imaging (MRI) experimental scheme of the time sequence is shown in FIG. 9. Images were acquired using a 7T MRI system (ClinScan 70/30 USR) (Bruker, Rheinstetten, Germany) with a linear body coil. The rat was anaesthetized with 1.5% isoflurane and connected to a respiratory rate monitor. The flow of anesthetic gas was constantly regulated to maintain the breathing rate at approximately 40/min. MRA of the CCAs was performed using the time-of-flight (TOF) method without a contrast agent. Transverse slices (panels (a) to (d) of FIG. 9) were acquired with a fast, low-angle shot (FLASH) using the following parameters: TR=22 ms, TE=4.87 ms, pulse angle=90 degrees, field of view (FQV)=55×42 mm2, and matrix size=58×256. T2-weighted images (panels (e) to (f) of FIG. 9) were acquired using a turbo spin-echo sequence and using the following parameters: TR=2900 ms, TE=37 ms, turbo factor=7, FOV=45×45 mm2, slice thickness=1 mm, and matrix size=240×320. The imaged area covered the CCAs, the carotid bifurcation, the internal carotid artery, and the external carotid artery. Contiguous cross-sectional images were obtained perpendicular to the long axis of the neck. Thrombus formation in the CCAs of Example 3 and Comparative Example 2 was observed by MRA and coronal sequential MR images. […] Because the blood flow of the CCA of Example 3 was disrupted by thrombus, MRA of the CCA of Example 3 was not as bright as the MRA of the CCA of Comparative Example 2 (panel (b) of FIG. 9).

The mark [4] stands for this setting: Example 3: intermittent 4.5 mW/cm2 LED.

For `O=C([O-])c1c(Cl)c(Cl)c(Cl)c(Cl)c1-c1c2cc(I)c(=O)c(I)c-2oc2c(I)c([O-])c(I)cc12.[Na+].[Na+]` [rose bengal], the “thrombosis formation in the CCA (ultrasound)” value in assay [1] (Comparative Example 1: 60 mg/kg i.v., up to 7 days) was “thrombosis did not form”; in assay [1] (Comparative Example 2: right CCA of the Example 3 rat, up to 7 days) it was “thrombosis was not formed”. Further, the “thrombosis / occlusion of the CCA (ultrasound)” value in assay [1] (Comparative Example 5: intermittent LED 4.0 mW/cm2 (2 h, off 30 min, 2 h), up to 1 day) is “disappeared within one day after irradiation”; in assay [1] (Comparative Example 6: intermittent LED 5.0 mW/cm2 (2 h, off 30 min, 2 h), up to 1 day) it was “the artery became totally occluded one day after irradiation”; in assay [1] (Example 1: 60 mg/kg i.v., LED 540 nm, 6 mW/cm2 continuously for 4 hours, up to 7 days) it was “totally occluded right after irradiation and total occlusion was maintained for 7 days”; in assay [1] (Example 2: 60 mg/kg i.v., LED 5 mW/cm2 continuously for 4 hours, up to 7 days), “the formed thrombus gradually diminished 3 days after irradiation (Post OP 3d) and totally disappeared at 7 days after irradiation”; in assay [1] (Example 3: 60 mg/kg i.v., LED 4.5 mW/cm2 2 hours, off 30 minutes, 2 hours, up to 7 days), “the CCA was totally occluded at 7 days after irradiation”. Moreover, the “endothelial cells, PECAM-1 staining” value in assay [2] (Comparative Example 2: non-irradiated CCA of the same rat) was “intact”; in assay [2] (setting [4]) it was “injured and discontinued”. Further, the “thrombus formation, histologic examination (H&E)” value in assay [2] (setting [4]) was “formation of thrombus packed with red blood cells, leucocytes, and platelets”; in assay [2] (non-irradiated CCA of the same rat) it was “no thrombus formation was observed”. Besides, the “thrombus in the CCA (MRA / T2-weighted MRI)” value in assay [3] (immediately after irradiation) was “the thrombus appeared on the vessel wall”; in assay [3] (seven days after irradiation), “totally occluded”; in assay [3] (three days after irradiation), “enlarged and significantly disrupted blood flow”.
